Test results as given in patent US20240124442A1, “TRICYCLIC-AMIDO-BICYCLIC PRMT5 INHIBITORS” (AMGEN INC., priority 2021, published 2024).

Legend:
HCT116 WT cells = test: HCT116 WT (parent) cell line proliferation / cell viability (CellTiter-Glo, 6 days); assay type: cell-based; details: Homo sapiens, HCT-116, 144 h, 6 days treatment
Method: (§1) HCT116 Proliferation Activity
(§2) To assess selective anti-proliferative activity of compounds of the invention in cells that have loss expression of MTAP, an HCT-116 isogenic cell line pair was utilized where one cell line was engineered to genetically knockout both MTAP alleles. Cell viability was then assessed in both the parent HCT-116 cell line and the MTAP null cell line after 6 days of treatment with compounds of the present invention. Selective anti-proliferative activity in the MTAP null cell line indicates MTA-cooperative inhibition of PRMT5 and ability to inhibit growth of cancer cells that have loss of MTAP.
(§3) HCT116 MTAP null and WT cells were seeded in 96-well tissue culture plates in RPMI 1640 media+10% fetal bovine serum. Plates were incubated overnight at 37° C. and 5% CO2. Cells were then treated with an 8- or 9-point serial dilution of compound, using a top concentration of 1, or 10 μM, 1:3 serial dilution steps and, a DMSO-only control. Cells were incubated in the presence of drug for 6 days. Effects on cell viability were measured with the CellTiter-Glo® Luminescent Cell Viability Assay (Promega) per manufacturer's recommendation. Assay plates were read on an EnVision™ Multilabel Reader using the Ultra-Sensitive luminescence module. IC50 values were calculated with GraphPad Prism v 5.01 using symmetrical sigmoidal dose-response least squares fit with Hill slope fixed to −1 and top constrain to 100% or GeneData Screener using a 4-parameter logistic model to fit dose response curves.
(§4) Alternatively, compounds could be assayed with a 384 well plate format:
(§5) Compounds were pre-spotted into 384 well plates with a 22-point serial dilution of compound, using a top concentration of 10 or 50 μM, 1:2 serial dilution steps and, a DMSO-only control. HCT116 MTAP null and WT cells were then seeded as above and after 6 days effects on cell viability were measured with the CellTiter-Glo® Luminescent Cell Viability Assay (Promega). Assay plates were read as above and IC50 values were calculated with GeneData Screener using a 4-parameter logistic model to fit dose response curves. The reported IC50 represents the value where the curve transits 50% of control.

HCT116 MTAP null cells = test: HCT116 MTAP null cell line proliferation / cell viability (CellTiter-Glo, 6 days); assay type: cell-based; details: 144 h; HCT116 MTAP null cells, 6 days treatment, CellTiter-Glo cell viability; read-out: HCT-116 MTAP null IC50
Method: as §1, §2, §3, §4, §5

SMILES: CC(C)S(=O)(=O)c1ccc2c(c1)OCC2N(C)C(=O)c1cc2c3c(c(N)nc2cc1F)COC3 (racemic) [Example 464, 4-amino-7-fluoro-N-methyl-N-((3R)-6-(2-propanylsulfonyl)-2,3-dihydro-1-benzofuran-3-yl)-1,3-dihydrofuro[3,4-c]quinoline-8-carboxamide and 4-amino-7-fluoro-N-methyl-N-((3S)-6-(2-propanylsulfonyl)-2,3-dihydro-1-benzofuran-3-yl)-1,3-dihydrofuro[3,4-c]quinoline-8-carboxamide]
- IC50 (HCT116 WT cells): 1.88 µM
- IC50 (HCT116 MTAP null cells): 0.022 µM

SMILES: CN(C(=O)c1cc2c3c(c(N)nc2cc1F)COC3)C1COc2cc(Br)cnc21 (racemic) [Example 465, 4-amino-N-((3R)-6-bromo-2,3-dihydrofuro[3,2-b]pyridin-3-yl)-7-fluoro-N-methyl-1,3-dihydrofuro[3,4-c]quinoline-8-carboxamide and 4-amino-N-((3S)-6-bromo-2,3-dihydrofuro[3,2-b]pyridin-3-yl)-7-fluoro-N-methyl-1,3-dihydrofuro[3,4-c]quinoline-8-carboxamide]
- IC50 (HCT116 WT cells): 32.2 µM
- IC50 (HCT116 MTAP null cells): 1.42 µM

SMILES: CN(C(=O)c1cc2c3c(c(N)nc2cc1Cl)COC3)C1COc2cc(C(F)(F)F)cc(F)c21 (racemic) [Example 472, 4-amino-7-chloro-N-((3R)-4-fluoro-6-(trifluoromethyl)-2,3-dihydro-1-benzofuran-3-yl)-N-methyl-1,3-dihydrofuro[3,4-c]quinoline-8-carboxamide and 4-amino-7-chloro-N-((3S)-4-fluoro-6-(trifluoromethyl)-2,3-dihydro-1-benzofuran-3-yl)-N-methyl-1,3-dihydrofuro[3,4-c]quinoline-8-carboxamide]
- IC50 (HCT116 WT cells): 1.15 µM
- IC50 (HCT116 MTAP null cells): 0.022 µM

SMILES: CN(C(=O)c1cc2c(cc1F)nc(N)c1cnn(C)c12)C1CSc2cc(Br)ccc21 (racemic) [Example 479, 4-amino-N-((3R)-6-bromo-2,3-dihydro-1-benzothiophen-3-yl)-7-fluoro-N,1-dimethyl-1H-pyrazolo[4,3-c]quinoline-8-carboxamide and 4-amino-N-((3S)-6-bromo-2,3-dihydro-1-benzothiophen-3-yl)-7-fluoro-N,1-dimethyl-1H-pyrazolo[4,3-c]quinoline-8-carboxamide]
- IC50 (HCT116 WT cells): 0.71 µM
- IC50 (HCT116 MTAP null cells): 0.023 µM

SMILES: CN(C(=O)c1cc2c(cc1F)nc(N)c1c2cnn1C)C1COc2cc(C#N)ccc21 (racemic) [Example 482, 4-amino-N-((3R)-6-cyano-2,3-dihydro-1-benzofuran-3-yl)-7-fluoro-N,3-dimethyl-3H-pyrazolo[3,4-c]quinoline-8-carboxamide and 4-amino-N-((3S)-6-cyano-2,3-dihydro-1-benzofuran-3-yl)-7-fluoro-N,3-dimethyl-3H-pyrazolo[3,4-c]quinoline-8-carboxamide]
- IC50 (HCT116 WT cells): 17.5 µM
- IC50 (HCT116 MTAP null cells): 0.166 µM

SMILES: CN(C(=O)c1cc2c(cc1F)nc(N)c1c2cnn1C)C1CSc2cc(Br)ccc21 (racemic) [Example 484, 4-amino-N-((3R)-6-bromo-2,3-dihydro-1-benzothiophen-3-yl)-7-fluoro-N,3-dimethyl-3H-pyrazolo[3,4-c]quinoline-8-carboxamide and 4-amino-N-((3S)-6-bromo-2,3-dihydro-1-benzothiophen-3-yl)-7-fluoro-N,3-dimethyl-3H-pyrazolo[3,4-c]quinoline-8-carboxamide]
- IC50 (HCT116 WT cells): 5.59 µM
- IC50 (HCT116 MTAP null cells): 0.221 µM

SMILES: CN(C(=O)c1cc2c(cc1Cl)nc(N)c1c2cnn1C)C1CCc2nc(C(F)(F)F)ccc21 (racemic) [Example 485, 4-amino-7-chloro-N,3-dimethyl-N-((5R)-2-(trifluoromethyl)-6,7-dihydro-5H-cyclopenta[b]pyridin-5-yl)-3H-pyrazolo[3,4-c]quinoline-8-carboxamide and 4-amino-7-chloro-N,3-dimethyl-N-((5S)-2-(trifluoromethyl)-6,7-dihydro-5H-cyclopenta[b]pyridin-5-yl)-3H-pyrazolo[3,4-c]quinoline-8-carboxamide]
- IC50 (HCT116 WT cells): 11.7 µM
- IC50 (HCT116 MTAP null cells): 0.125 µM
